Patent US7850946B2, “Macrocyclic cyanine and indocyanine bioconjugates provide improved biomedical applications” (Washington University in St. Louis, priority 2003, dated 2010)
Starred links: 1 amine or outer side, 2 acyl side, 3 side chain; linkers in the order of their positions; H or OH if unused. Positions of bridges follow the written chain, without caps; N, C: chain ends. Non-standard residues stand in square brackets, D forms with d. Residues, ends and D or L forms follow the SMILES beside them. X1 = CC1(C)C(/C=C/C=C/C=C/C=C2/N(CCC(=O)[*:2])c3ccc4ccccc4c3C2(C)C)=[N+](CCC(=O)[*:1])c2ccc3ccccc3c21

Columns and labels:
[1] = tested on: CA20948 tumor-bearing mice; experiment: Contrast agent-mediated optical imaging / biodistribution in tumor (CA20948) bearing mice; assay type: in vivo; settings: 0.5 mL of a 1 μM solution via lateral tail vein
Source text: The instrument consists of an excitation source and a charge-coupled device (CCD) camera for signal detection. To image compounds such as compound 18 that absorb and emit radiation in the near infrared region, a nominal 780 nm collimated solid state laser source was used to excite the compounds. The nominal 50 mW of incident power from the laser was reduced to about 20 mW at the output of the fiber optic bundle. A CCD camera (12 bit, 1024×1024 pixel, back illuminated) was equipped with the appropriate interference filter to capture the emitted photons at 830 nm. Biodistribution of the dyes and receptor-specific optical contrast agent in mice were performed by injecting 0.5 mL of a 1 μM solution of the compound via the lateral tail vein of tumor (CA20948) bearing mice. […] In contrast, injection of somatostatin-avid optical probes in CA20948 tumor-bearing mice preferentially accumulates in the tumor.

SSTR2 = target: T1, SSTR2 (Rattus norvegicus, UniProt P30680); experiment: Receptor binding affinity: competition with 111In-DTPA-octreotide in AR42J tumor cell membranes; settings: 37° C., 2 h, radioligand 111In-DTPA-octreotide, read-out: IC50 relative to 111In-DTPA-octreotide
T1 construct: A preparation of cell membranes was made from AR42J cells by brief sonication; endogenous in cells; host or cells: AR42J rat pancreatic carcinoma cells (membrane preparation)
T1 sequence (P30680 whole entry): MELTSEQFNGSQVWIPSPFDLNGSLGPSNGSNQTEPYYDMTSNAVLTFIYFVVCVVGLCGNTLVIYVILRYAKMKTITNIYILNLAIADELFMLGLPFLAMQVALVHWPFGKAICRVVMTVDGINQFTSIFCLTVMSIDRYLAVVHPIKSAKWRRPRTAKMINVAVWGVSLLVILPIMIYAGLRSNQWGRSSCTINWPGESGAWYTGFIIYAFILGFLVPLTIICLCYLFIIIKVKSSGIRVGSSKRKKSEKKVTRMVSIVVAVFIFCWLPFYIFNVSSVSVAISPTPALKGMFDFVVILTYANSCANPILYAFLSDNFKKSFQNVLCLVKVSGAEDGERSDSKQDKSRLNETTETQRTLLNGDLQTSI
Description: The binding affinity of somatostatin analogues was carried out using ^111In-DTPA-octreotide in AR42J tumor cells according to previously reported methods with minor modifications (Lewis, J. S., Lewis, M. R., Srinivasan, A., Schmidt, M. A., Wang, J., and Anderson, C. J. (1999) Comparison of Four ^64Cu-labeled Somatostatin Analogs in vitro and in a Tumor-bearing Rat Model: Evaluation of New Derivatives for PET Imaging and Targeted Radiotherapy. J. Med. Chem. 42, 1.341-1347). The AR42J rat pancreatic carcinoma cell line is known to express SSTR2 both in vitro and in vivo ((Rosewicz, S., Vogt, D., Harth, N., Grund, C., Franke, W. W., Ruppert, S., Schweitzer, E., Riecken, E.-O., and Wiedenman, B. (1992) An Amphicrine Pancreatic Cell Line: AR42J Cells Combine Exocrine and Neuroendocrine Properties. Eur. J. Cell Biol. 59, 80-91; Christophe, J. (1994) Pancreatic Tumoral Cell Line AR42J: An Amphicrine Model. Am. J.
Physiol. (Gastrointest. Liver Physiol.) 266 (29), G963-G971). […] The filters containing membrane-bound radioactivity were removed from the assay plate and counted using a Beckman 8000 automated well-typed counter (Fullerton, Calif.). Specific binding was calculated by subtracting the non-specifically bound radioactivity from that of total binding. The best-fit IC50 values were calculated using PRISM™ (Graphpad, San Diego, Calif.). […]

Compound: CC1(C)C(/C=C/C=C/C=C/C=C2/N(CCC(=O)O)c3ccc4ccccc4c3C2(C)C)=[N+](CCC(=O)O)c2ccc3ccccc3c21 [Compound 2, Bispropylcarboxymethylindocyanine Dye]
- time to clearance from the blood postinjection [1]: ≤ 1 h
- biodistribution: site of accumulation ([1]; optical imaging 780 nm excitation / 830 nm emission): accumulates in the liver

Compound: C[C@@H](O)[C@@H]1NC(=O)[C@@H]2CSSC[C@H](NC(=O)[C@@H](Cc3ccccc3)NC(=O)CC[N+]3=C(/C=C/C=C/C=C/C=C4/N(CCC(=O)NCCCC[C@@H](C(N)=O)NC1=O)c1ccc5ccccc5c1C4(C)C)C(C)(C)c1c3ccc3ccccc13)C(=O)N[C@@H](Cc1ccc(O)cc1)C(=O)N[C@H](Cc1c[nH]c3ccccc13)C(=O)N[C@@H](CCCCN)C(=O)N[C@@H]([C@@H](C)O)C(=O)N2 [Compound 18] ([dF]CY[dW]KTCTK-NH2; disulfide 2-7; linker N-9 via X1)
- IC50 (SSTR2): 8.17 nM
